Data published in ChEMBL document CHEMBL3885861, “Open TG-GATES”.

Species: Rattus norvegicus
Test: Open TG-GATES - Regimen: Daily Repeat
Type: toxicity, organism-based, Sprague-Dawley
Set-up: regimen Daily Repeat, gender Male, age 6 weeks
Conditions: in vivo, po, 300 mg/kg, route gavage, dose level Middle; for APTT / Bas / Eos / Fbg / Hb / Ht / Lym / MCH / MCHC / MCV / Mono / Neu / PT / Plat / RBC / Ret / WBC: tissue Blood; for KIDNEY_L / KIDNEY_R / KIDNEY_TOTAL: tissue Kidney; for LIVER: tissue Liver; for A/G / ALP / ALT / AST / BUN / CRE / Ca / Cl / DBIL / GLC / IP / K / LDH / Na / PL / RALB / TBIL / TC / TG / TP / gamma-GTP: tissue Plasma

Cc1nnc2n1-c1ccc(Cl)cc1C(c1ccccc1Cl)=NC2 [TRIAZOLAM] was tested, and the TERMINAL_BW (72 h, time 3 day) was 220.9 g, the APTT (72 h, time 3 day) was 25.7 s and the Bas (72 h, time 3 day) was 0.2%. It also gave an Eos (72 h, time 3 day) of 1%, a Fbg (72 h, time 3 day) of 302 mg/dL and a Hb (72 h, time 3 day) of 13.8 g/dL. The Ht (72 h, time 3 day) was 41.2%, the Lym (72 h, time 3 day) was 78.6% and the MCH (72 h, time 3 day) was 21.6 pg. For the same compound, the MCHC (72 h, time 3 day) was 33.4%, the MCV (72 h, time 3 day) was 64.4 fL and the Mono (72 h, time 3 day) was 3.2%. The Neu (72 h, time 3 day) was 16.2%, the PT (72 h, time 3 day) was 12.8 s and the Plat (72 h, time 3 day) was 108.5 x10_4/uL. For the same compound, the RBC (72 h, time 3 day) was 639.2 x10_4/ul, the Ret (72 h, time 3 day) was 6.8% and the WBC (72 h, time 3 day) was 124.2 x10_2/uL. The KIDNEY_L (72 h, time 3 day) was 1 g, the KIDNEY_R (72 h, time 3 day) was 1 g and the KIDNEY_TOTAL (72 h, time 3 day) was 1.9 g. It also gave an LIVER (72 h, time 3 day) of 10.9 g, an A/G (72 h, time 3 day) of 0.9 and an ALP (72 h, time 3 day) of 1522.4 IU/L. It also gave an ALT (72 h, time 3 day) of 53.4 IU/L, an AST (72 h, time 3 day) of 74.4 IU/L and a BUN (72 h, time 3 day) of 14.6 mg/dL. For the same compound, the CRE (72 h, time 3 day) was 0.2 mg/dL, the Ca (72 h, time 3 day) was 11.1 mg/dL and the Cl (72 h, time 3 day) was 104.2 meq/L. The DBIL (72 h, time 3 day) was 0.014 mg/dL, the GLC (72 h, time 3 day) was 176.8 mg/dL and the IP (72 h, time 3 day) was 8.2 mg/dL. The K (72 h, time 3 day) was 3.9 meq/L, the LDH (72 h, time 3 day) was 104.8 IU/L and the Na (72 h, time 3 day) was 141.6 meq/L. It also gave a PL (72 h, time 3 day) of 155 mg/dL, an RALB (72 h, time 3 day) of 2.6 g/dL and a TBIL (72 h, time 3 day) of 0.048 mg/dL. It also gave a TC (72 h, time 3 day) of 81 mg/dL, a TG (72 h, time 3 day) of 82 mg/dL and a TP (72 h, time 3 day) of 5.6 g/dL. The gamma-GTP (72 h, time 3 day) was 1 IU/L, the TERMINAL_BW ([…], time 7 day) was 262.7 g and the TERMINAL_BW ([…], time 14 day) was 306.6 g. For the same compound, the TERMINAL_BW ([…], time 28 day) was 407.3 g, the APTT ([…], time 7 day) was 19.2 s and the Bas ([…], time 7 day) was 0%. The Eos ([…], time 7 day) was 1%, the Fbg ([…], time 7 day) was 262.6 mg/dL and the Hb ([…], time 7 day) was 13.6 g/dL. For the same compound, the Ht ([…], time 7 day) was 40.5%, the Lym ([…], time 7 day) was 76.6% and the MCH ([…], time 7 day) was 21.4 pg. For the same compound, the MCHC ([…], time 7 day) was 33.6%, the MCV ([…], time 7 day) was 63.6 fL and the Mono ([…], time 7 day) was 3.4%. For the same compound, the Neu ([…], time 7 day) was 18.6%, the PT ([…], time 7 day) was 12.8 s and the Plat ([…], time 7 day) was 124.7 x10_4/uL. For the same compound, the RBC ([…], time 7 day) was 637.8 x10_4/ul, the Ret ([…], time 7 day) was 7% and the WBC ([…], time 7 day) was 119.6 x10_2/uL. The APTT ([…], time 14 day) was 17.8 s, the Bas ([…], time 14 day) was 0.4% and the Eos ([…], time 14 day) was 1%. For the same compound, the Fbg ([…], time 14 day) was 245.8 mg/dL, the Hb ([…], time 14 day) was 14.1 g/dL and the Ht ([…], time 14 day) was 43.1%. It also gave a Lym ([…], time 14 day) of 76%, an MCH ([…], time 14 day) of 19.9 pg and an MCHC ([…], time 14 day) of 32.8%. For the same compound, the MCV ([…], time 14 day) was 60.8 fL, the Mono ([…], time 14 day) was 2.2% and the Neu ([…], time 14 day) was 19.4%. For the same compound, the PT ([…], time 14 day) was 13.5 s, the Plat ([…], time 14 day) was 113 x10_4/uL and the RBC ([…], time 14 day) was 710 x10_4/ul. For the same compound, the Ret ([…], time 14 day) was 4.9%, the WBC ([…], time 14 day) was 121.8 x10_2/uL and the APTT ([…], time 28 day) was 18.4 s. The Bas ([…], time 28 day) was 0%, the Eos ([…], time 28 day) was 1.2% and the Fbg ([…], time 28 day) was 262.4 mg/dL. For the same compound, the Hb ([…], time 28 day) was 15.3 g/dL, the Ht ([…], time 28 day) was 45.6% and the Lym ([…], time 28 day) was 82%. The MCH ([…], time 28 day) was 19.3 pg, the MCHC ([…], time 28 day) was 33.6% and the MCV ([…], time 28 day) was 57.5 fL. It also gave a Mono ([…], time 28 day) of 1.4%, a Neu ([…], time 28 day) of 14.2% and a PT ([…], time 28 day) of 13.6 s. For the same compound, the Plat ([…], time 28 day) was 106.2 x10_4/uL, the RBC ([…], time 28 day) was 793.4 x10_4/ul and the Ret ([…], time 28 day) was 2.3%. For the same compound, the WBC ([…], time 28 day) was 88.2 x10_2/uL, the KIDNEY_L ([…], time 7 day) was 1.1 g and the KIDNEY_R ([…], time 7 day) was 1.1 g. The KIDNEY_TOTAL ([…], time 7 day) was 2.2 g, the KIDNEY_L ([…], time 14 day) was 1.2 g and the KIDNEY_R ([…], time 14 day) was 1.2 g. It also gave a KIDNEY_TOTAL ([…], time 14 day) of 2.4 g, a KIDNEY_L ([…], time 28 day) of 1.4 g and a KIDNEY_R ([…], time 28 day) of 1.4 g. The KIDNEY_TOTAL ([…], time 28 day) was 2.8 g, the LIVER ([…], time 7 day) was 12.6 g and the LIVER ([…], time 14 day) was 13.4 g. For the same compound, the LIVER ([…], time 28 day) was 15.8 g, the A/G ([…], time 7 day) was 0.9 and the ALP ([…], time 7 day) was 1686 IU/L. It also gave an ALT ([…], time 7 day) of 53 IU/L, an AST ([…], time 7 day) of 75 IU/L and a BUN ([…], time 7 day) of 19 mg/dL. The CRE ([…], time 7 day) was 0.2 mg/dL, the Ca ([…], time 7 day) was 11.1 mg/dL and the Cl ([…], time 7 day) was 104.8 meq/L. It also gave a DBIL ([…], time 7 day) of 0.012 mg/dL, a GLC ([…], time 7 day) of 187.2 mg/dL and an IP ([…], time 7 day) of 7.5 mg/dL. The K ([…], time 7 day) was 4.2 meq/L, the LDH ([…], time 7 day) was 84.8 IU/L and the Na ([…], time 7 day) was 141.4 meq/L. For the same compound, the PL ([…], time 7 day) was 162.8 mg/dL, the RALB ([…], time 7 day) was 2.6 g/dL and the TBIL ([…], time 7 day) was 0.038 mg/dL. It also gave a TC ([…], time 7 day) of 79 mg/dL, a TG ([…], time 7 day) of 103.4 mg/dL and a TP ([…], time 7 day) of 5.7 g/dL. It also gave a gamma-GTP ([…], time 7 day) of 1 IU/L, an A/G ([…], time 14 day) of 0.8 and an ALP ([…], time 14 day) of 1485.8 IU/L. For the same compound, the ALT ([…], time 14 day) was 43 IU/L, the AST ([…], time 14 day) was 73 IU/L and the BUN ([…], time 14 day) was 15 mg/dL. The CRE ([…], time 14 day) was 0.2 mg/dL, the Ca ([…], time 14 day) was 10.8 mg/dL and the Cl ([…], time 14 day) was 104.6 meq/L. The DBIL ([…], time 14 day) was 0.008 mg/dL, the GLC ([…], time 14 day) was 182.2 mg/dL and the IP ([…], time 14 day) was 7.2 mg/dL. The K ([…], time 14 day) was 4.1 meq/L, the LDH ([…], time 14 day) was 87.4 IU/L and the Na ([…], time 14 day) was 142.8 meq/L. The PL ([…], time 14 day) was 140 mg/dL, the RALB ([…], time 14 day) was 2.6 g/dL and the TBIL ([…], time 14 day) was 0.036 mg/dL. For the same compound, the TC ([…], time 14 day) was 67.2 mg/dL, the TG ([…], time 14 day) was 105.4 mg/dL and the TP ([…], time 14 day) was 5.7 g/dL. The gamma-GTP ([…], time 14 day) was 1.2 IU/L, the A/G ([…], time 28 day) was 0.8 and the ALP ([…], time 28 day) was 1211.8 IU/L. It also gave an ALT ([…], time 28 day) of 36.4 IU/L, an AST ([…], time 28 day) of 67.8 IU/L and a BUN ([…], time 28 day) of 16.8 mg/dL. For the same compound, the CRE ([…], time 28 day) was 0.3 mg/dL, the Ca ([…], time 28 day) was 10.7 mg/dL and the Cl ([…], time 28 day) was 105 meq/L. The DBIL ([…], time 28 day) was 0.012 mg/dL, the GLC ([…], time 28 day) was 186.4 mg/dL and the IP ([…], time 28 day) was 6.2 mg/dL. For the same compound, the K ([…], time 28 day) was 4.1 meq/L, the LDH ([…], time 28 day) was 82.2 IU/L and the Na ([…], time 28 day) was 142 meq/L. The PL ([…], time 28 day) was 145.8 mg/dL, the RALB ([…], time 28 day) was 2.7 g/dL and the TBIL ([…], time 28 day) was 0.058 mg/dL. The TC ([…], time 28 day) was 70.6 mg/dL, the TG ([…], time 28 day) was 110.8 mg/dL and the TP ([…], time 28 day) was 6.2 g/dL. For the same compound, the gamma-GTP ([…], time 28 day) was 1 IU/L.
